Test results taken from ChEMBL document CHEMBL1201862, “PubChem BioAssay data set” (2004).
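Five concentrations, 48 hours, 96-well plates. The concentration for 50% growth inhibition is given as GI50.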 Active and inactive are the calls of the source. Cut-off read from the data, not from the text of the source: active = GI50 up to about 1.1 µM and inactive = higher.

Experiments:
Experiment in all cases: growth of human tumour cells (NCI), 48 h
[1] = test system: A498
[2] = test system: K562
[3] = test system: HOP-92
[4] = test system: COLO 205
[5] = test system: SF-295
[6] = test system: SK-MEL-2
[7] = test system: ACHN
[8] = test system: A549
[9] = test system: SR
[10] = test system: MDA-MB-231
[11] = test system: SW-620
[12] = test system: T47D
[13] = test system: SN12C
[14] = test system: HCT-116
[15] = test system: SK-OV-3
[16] = test system: SK-MEL-5
[17] = test system: NCI-H226
[18] = test system: OVCAR-8
[19] = test system: NCI-H460

Compound | GI50 [1] | GI50 [2] | GI50 [3] | GI50 [4] | GI50 [5] | GI50 [6] | GI50 [7] | GI50 [8] | GI50 [9] | GI50 [10] | GI50 [11] | GI50 [12] | GI50 [13] | GI50 [14] | GI50 [15] | GI50 [16] | GI50 [17] | GI50 [18] | GI50 [19]
CCOC(=O)C1(CC(=O)O)CCCC1=O (stereo not drawn) | > 100 µM (inactive) | > 100 µM (inactive) | > 100 µM (inactive) | > 100 µM (inactive) | > 100 µM (inactive) | > 100 µM (inactive) | > 100 µM (inactive) | > 100 µM (inactive) | > 100 µM (inactive) | > 100 µM (inactive) | > 100 µM (inactive) | > 100 µM (inactive) | > 100 µM (inactive) | > 100 µM (inactive) | > 100 µM (inactive) | > 100 µM (inactive) | > 100 µM (inactive) | > 100 µM (inactive) | > 100 µM (inactive)
COC12C=CC(CC1)C(C)(C)C2OS(C)(=O)=O (stereo not drawn) | 97.1 µM (inactive) | > 100 µM (inactive) | > 100 µM (inactive) | > 100 µM (inactive) | > 100 µM (inactive) | > 100 µM (inactive) | > 100 µM (inactive) | > 100 µM (inactive) | > 100 µM (inactive) | > 100 µM (inactive) | > 100 µM (inactive) | > 100 µM (inactive) | > 100 µM (inactive) | > 100 µM (inactive) | > 100 µM (inactive) | > 100 µM (inactive) | > 100 µM (inactive) | > 100 µM (inactive) | > 100 µM (inactive)
COc1nc2c(c(=O)n1C)N[C@H]1[C@H](OC(C)=O)[C@@H](OC(C)=O)CO[C@H]1N2 | > 100 µM (inactive) | > 100 µM (inactive) | > 100 µM (inactive) | > 100 µM (inactive) | > 100 µM (inactive) | > 100 µM (inactive) | > 100 µM (inactive) | > 100 µM (inactive) | > 100 µM (inactive) | > 100 µM (inactive) | > 100 µM (inactive) | > 100 µM (inactive) | > 100 µM (inactive) | > 100 µM (inactive) | > 100 µM (inactive) | > 100 µM (inactive) | > 100 µM (inactive) | > 100 µM (inactive) | > 100 µM (inactive)
COC(=O)C1=C(C)NC(C)=C(C(=O)OC)C1c1ccc(NO)cc1 | 29.8 µM (inactive) | 1.86 µM (inactive) | 2.68 µM (inactive) | 12.5 µM (inactive) | 17 µM (inactive) | 17.1 µM (inactive) | 12.6 µM (inactive) | 18.2 µM (inactive) | 2.47 µM (inactive) | 12.8 µM (inactive) | 4.09 µM (inactive) | 7.23 µM (inactive) | 18.7 µM (inactive) | 7.59 µM (inactive) | 23.4 µM (inactive) | 15.4 µM (inactive) | 17.3 µM (inactive) | 10.2 µM (inactive) | 14.9 µM (inactive)
COc1ccc(CCNC(=S)NC=C2C(=O)c3ccccc3C2=O)cc1OC | > 100 µM (inactive) | > 100 µM (inactive) | 0.741 µM (active) | > 100 µM (inactive) | > 100 µM (inactive) | > 100 µM (inactive) | > 100 µM (inactive) | > 100 µM (inactive) | 82 µM (inactive) | 68.1 µM (inactive) | > 100 µM (inactive) | > 100 µM (inactive) | > 100 µM (inactive) | > 100 µM (inactive) | > 100 µM (inactive) | > 100 µM (inactive) | > 100 µM (inactive) | > 100 µM (inactive) | 10 µM (inactive)
COC(=O)[C@]1(C)[C@H]2C[C@H]3O[C@H]4[C@H](O)[C@@H](O)OC(CC(O)C(C5=CC(=O)OC5)C(C5=CC(=O)OC5)C(O)CC56CCCCC7[C@@H](C)[C@H](C[C@H]8[C@](C)(C(=O)OC)[C@H](O)CC[C@]78C)O[C@H]([C@@H](O)[C@H](O)O5)[C@H]6O)(CCCCC([C@@H]3C)[C@]2(C)CC[C@@H]1O)[C@H]4O (stereo partly drawn) | 0.0916 µM (active) | 0.234 µM (active) | 0.281 µM (active) | 0.338 µM (active) | 0.0767 µM (active) | 0.237 µM (active) | < 0.0218 µM (active) | 0.0286 µM (active) | 0.0545 µM (active) | 0.347 µM (active) | 0.168 µM (active) | 0.299 µM (active) | < 0.021 µM (active) | 0.0404 µM (active) | 0.302 µM (active) | 0.0296 µM (active) | 0.973 µM (active) | 0.188 µM (active) | 0.0233 µM (active)
COc1cc(/C=C/C(=O)O)ccc1OS(=O)(=O)O | > 100 µM (inactive) | > 100 µM (inactive) | > 100 µM (inactive) | > 100 µM (inactive) | > 100 µM (inactive) | > 100 µM (inactive) | > 100 µM (inactive) | > 100 µM (inactive) | > 100 µM (inactive) | > 100 µM (inactive) | > 100 µM (inactive) | > 100 µM (inactive) | > 100 µM (inactive) | > 100 µM (inactive) | > 100 µM (inactive) | > 100 µM (inactive) | > 100 µM (inactive) | > 100 µM (inactive) | > 100 µM (inactive)
